{"source": "patent US20040009904A1", "about": "“APL immunoreactive peptides, conjugates thereof and methods of treatment for aPL antibody-mediated pathologies” (priority 1995, published 2004)", "note": "Bridge positions count the residues as written; N and C are the ends. Square brackets hold non-standard residues; d marks the D form. Peptide text beside a SMILES is read from it. NMeL = CN[C@@H](CC(C)C)C(=O)O; Phg = N[C@H](C(=O)O)c1ccccc1; NMeV = CN[C@H](C(=O)O)C(C)C; Aib = CC(C)(N)C(=O)O; Sar = CNCC(=O)O", "data": [{"target": "ACA-6501", "assay": "Competitive binding peptide ACA ELISA, cardiolipin/β2-GPI-coated plates", "set-up": "species or system human", "details": "Optimization of Peptide 3G3; inf = no 50% inhibition", "description": "A variation of this assay uses microtitration plates coated with human β2-glycoprotein I/cardiolipin (β2-GPI/CL) instead of tetravalent peptide and tests the ability of monomeric peptides to block the binding of aPL antibody to the epitope(s) on β2-GPI/CL. In this assay, IgG-depleted human serum at an optimized concentration is used as a source of β2-GPI. The monomeric peptides at several concentrations are incubated with an optimized concentration of aPL antibody in a manner analogous to the assay which employs tetravalent peptide as a plate substrate. Following the incubation of aPL/peptide in (β2-GPI/CL) plates, antibody binding and the peptide concentration required for 50% inhibition is determined at half-maximal absorbance as in the tetravalent assay.\nPeptide sequences for all five peptides immediately follow the table. All were tested using the competitive binding peptide ACA ELISA using CL/β2-GPI plates as described herein.\n(B) Immulon I® 96-well, flat-bottom, polystyrene microtitration plates (Dynatech Laboratories, Inc., Chantilly, Va.) were coated with 30 μL/well of cardiolipin (CL, 50 μg; Sigma Chemical Co., St. Louis, Mo.) in ethanol. Two control wells received 30 μL ethanol only. After overnight evaporation at 4° C., each well was blocked with 200 μL of 5% (w/v) fish gelatin in PBS for 2 hours at RT.\nDuring this incubation, variable amounts of each of six peptides were mixed with 22 μL ACA-6501 serum diluted with 3% fish gelatin in 1:1 TBS/PBS (final dilution of 1:400) in a final volume of 220 μL using Eppendorf microcentrifuge tubes. Specifically, in tube #1 were mixed 181.3 μL of 3% fish gelatin in TBS-PBS, 16.7 μL of peptide stock solution plus 22 μL of ACA-6501 serum diluted 40 times in 3% fish gelatin/TBS-PBS. Stock solutions ranged from 450-800 μg/mL for peptides #951 (diserine non-cyclized negative control), #952 (a lot of LJP 690), and thioethers CCTE-3G3, CHTE-3G3, HCTE-3G3 and HHTE-3G3. To tube #2 the following were added: 148 μL fish gelatin/TBS-PBS, […] of peptide stock solution, plus 22 μL of 40 times diluted ACA-6501 serum. Tube #3 contained 48 μL fish gelatin/TBS-PBS, […] of peptide stock solution, plus 22 μL of 40 times diluted ACA-6501 serum. The control tube #4 received 396 μL fish gelatin/TBS-PBS and 44 μL of 40 times diluted ACA-6501 serum (no peptide). Each of the tubes incubated for approximately 1 hour at RT.\nThe CL/β2-GPI microtitration plate was washed 5 times with TBS and 100 μL aliquots in duplicate from Eppendorf tubes #1, 2, 3, and 4 containing the antibody-peptide (or no peptide mixtures) were added to the wells. A volume of 100 μL from tube #4 was added to the duplicate control wells containing no cardiolipin. The microtitration plate was incubated for 1 hour at RT with agitation at 40 rpm in an orbital shaker (American Scientific, Rotator V), washed 5 times with TBS and then 100 μL of 1:1000 goat anti-human IgG alkaline phosphatase conjugate (Zymed, Cat No. 62-8422) in 0.5% (w/v) BSA-TBS was added. Following incubation for 1 hour at RT, the microtitration plate was again washed 5 times with TBS and the colorimetric enzyme detection developed by adding 100 μL of PMPP solution (7.8 g phenolphthalein monophosphate plus 69.5 g of 2-amino-2-methyl-1-propanol in 100 mL water stock solution diluted 1:26 with water). After 21 minutes, the reaction was stopped by adding 50 μL of 0.2 M Na2HPO4 (Mallinckrodt) to each well. Absorbance at 550 nm was read in a microplate reader (Bio-Tek Instruments, Model EL 311). The amount of peptide that inhibited ACA-6501 binding by 50%, the IC50, was calculated from the graph at the intersection of half-maximal absorbance with amount of peptide added.", "units": {"with ACA 6501 150 ug/mL": "µg/mL"}, "values": [{"smiles": "CC(C)C[C@@H]1NC(=O)[C@H](c2ccccc2)NC(=O)CNC(=O)[C@H](CC(C)C)NC(=O)[C@H](C(C)C)NC(=O)CNC(=O)[C@H](CC(C)C)NC(=O)[C@@H](N)CSSC[C@@H](C(=O)O)NC1=O", "note": "[C L G V L Gp G L C] (H-CLGVLG[Phg]LC-OH; disulfide 1-9)", "with ACA 6501 150 ug/mL": 230}, {"smiles": "CC(C)C[C@@H]1NC(=O)[C@H](CCCCN)NC(=O)[C@@H]2CCCN2C(=O)[C@H](CC(C)C)NC(=O)[C@H](C(C)C)NC(=O)CNC(=O)[C@H](CC(C)C)NC(=O)[C@@H](N)CSSC[C@@H](C(=O)O)NC1=O", "note": "[C L G V L P K L C] (H-CLGVLPKLC-OH; disulfide 1-9)", "with ACA 6501 150 ug/mL": 350}, {"smiles": "CC(C)C[C@@H]1NC(=O)[C@H](CCCCN)NC(=O)C(C)(C)NC(=O)[C@H](CC(C)C)NC(=O)[C@H](C(C)C)NC(=O)CNC(=O)[C@H](CC(C)C)NC(=O)[C@@H](N)CSSC[C@@H](C(=O)O)NC1=O", "note": "[C L G V L aiB K L C] (H-CLGVL[Aib]KLC-OH; disulfide 1-9)", "with ACA 6501 150 ug/mL": 110}, {"smiles": "CC(C)C[C@@H]1NC(=O)[C@H](CCCCN)NC(=O)[C@@H](C)NC(=O)[C@H](CC(C)C)NC(=O)[C@H](C(C)C)NC(=O)CNC(=O)[C@H](CC(C)C)NC(=O)[C@@H](N)CSSC[C@@H](C(=O)O)NC1=O", "note": "[C L G V L dA K L C] (H-CLGVL[dA]KLC-OH; disulfide 1-9)", "with ACA 6501 150 ug/mL": 140}, {"smiles": "CC(C)C[C@@H]1NC(=O)[C@H](CCCCN)NC(=O)CN(C)C(=O)[C@H](CC(C)C)NC(=O)[C@H](C(C)C)NC(=O)CNC(=O)[C@H](CC(C)C)NC(=O)[C@@H](N)CSSC[C@@H](C(=O)O)NC1=O", "note": "[C L G V L nG K L C] (H-CLGVL[Sar]KLC-OH; disulfide 1-9)", "with ACA 6501 150 ug/mL": 550}, {"smiles": "CC(C)C[C@@H]1NC(=O)[C@H](CCCCN)NC(=O)[C@H](c2ccccc2)NC(=O)[C@H](CC(C)C)NC(=O)[C@H](C(C)C)NC(=O)CNC(=O)[C@H](CC(C)C)NC(=O)[C@@H](N)CSSC[C@@H](C(=O)O)NC1=O", "note": "[C L G V Lp G K L C] (H-CLGVL[Phg]KLC-OH; disulfide 1-9)", "with ACA 6501 150 ug/mL": 30}, {"smiles": "CC(C)C[C@@H]1NC(=O)[C@H](CCCCN)NC(=O)CNC(=O)[C@@H](CC(C)C)NC(=O)[C@H](C(C)C)NC(=O)CNC(=O)[C@H](CC(C)C)NC(=O)[C@@H](N)CSSC[C@@H](C(=O)O)NC1=O", "note": "[C L G V dL G K L C] (H-CLGV[dL]GKLC-OH; disulfide 1-9)", "with ACA 6501 150 ug/mL": 230}, {"smiles": "CC(C)C[C@@H]1NC(=O)[C@H](CCCCN)NC(=O)CNC(=O)[C@H](CC(C)C)N(C)C(=O)[C@H](C(C)C)NC(=O)CNC(=O)[C@H](CC(C)C)NC(=O)[C@@H](N)CSSC[C@@H](C(=O)O)NC1=O", "note": "[C L G V nL G K L C] (H-CLGV[NMeL]GKLC-OH; disulfide 1-9)", "with ACA 6501 150 ug/mL": 180}, {"smiles": "CC(C)C[C@@H]1NC(=O)[C@H](CCCCN)NC(=O)CNC(=O)[C@H](c2ccccc2)NC(=O)[C@H](C(C)C)NC(=O)CNC(=O)[C@H](CC(C)C)NC(=O)[C@@H](N)CSSC[C@@H](C(=O)O)NC1=O", "note": "[C L G Vp G G K L C] (H-CLGV[Phg]GKLC-OH; disulfide 1-9)", "with ACA 6501 150 ug/mL": 35}, {"smiles": "CC(C)C[C@@H]1NC(=O)[C@H](CCCCN)NC(=O)CNC(=O)[C@H](CC(C)C)NC(=O)C(C)(C)NC(=O)CNC(=O)[C@H](CC(C)C)NC(=O)[C@@H](N)CSSC[C@@H](C(=O)O)NC1=O", "note": "[C L G aiB L G K L C] (H-CLG[Aib]LGKLC-OH; disulfide 1-9)", "with ACA 6501 150 ug/mL": 110}, {"smiles": "CC(C)C[C@@H]1NC(=O)[C@H](CCCCN)NC(=O)CNC(=O)[C@H](CC(C)C)NC(=O)[C@@H](C(C)C)NC(=O)CNC(=O)[C@H](CC(C)C)NC(=O)[C@@H](N)CSSC[C@@H](C(=O)O)NC1=O", "note": "[C L G dV L G K L C] (H-CLG[dV]LGKLC-OH; disulfide 1-9)", "with ACA 6501 150 ug/mL": 260}, {"smiles": "CC(C)C[C@@H]1NC(=O)[C@H](CCCCN)NC(=O)CNC(=O)[C@H](CC(C)C)NC(=O)[C@H](C(C)C)N(C)C(=O)CNC(=O)[C@H](CC(C)C)NC(=O)[C@@H](N)CSSC[C@@H](C(=O)O)NC1=O", "note": "[C L G nV L G K L C] (H-CLG[NMeV]LGKLC-OH; disulfide 1-9)", "with ACA 6501 150 ug/mL": 220}, {"smiles": "CC(C)C[C@@H]1NC(=O)[C@H](CCCCN)NC(=O)CNC(=O)[C@H](CC(C)C)NC(=O)[C@H](c2ccccc2)NC(=O)CNC(=O)[C@H](CC(C)C)NC(=O)[C@@H](N)CSSC[C@@H](C(=O)O)NC1=O", "note": "[C L G pG L G K L C] (H-CLG[Phg]LGKLC-OH; disulfide 1-9)", "with ACA 6501 150 ug/mL": 70}, {"smiles": "CC(C)C[C@@H]1NC(=O)[C@H](CCCCN)NC(=O)CNC(=O)[C@H](CC(C)C)NC(=O)[C@H](C(C)C)NC(=O)[C@@H]2CCCN2C(=O)[C@H](CC(C)C)NC(=O)[C@@H](N)CSSC[C@@H](C(=O)O)NC1=O", "note": "[C L P V L G K L C] (H-CLPVLGKLC-OH; disulfide 1-9)", "with ACA 6501 150 ug/mL": 340}, {"smiles": "CC(C)C[C@@H]1NC(=O)[C@H](CCCCN)NC(=O)CNC(=O)[C@H](CC(C)C)NC(=O)[C@H](C(C)C)NC(=O)C(C)(C)NC(=O)[C@H](CC(C)C)NC(=O)[C@@H](N)CSSC[C@@H](C(=O)O)NC1=O", "note": "[C L aiB V L G K L C] (H-CL[Aib]VLGKLC-OH; disulfide 1-9)", "with ACA 6501 150 ug/mL": 80}, {"smiles": "CC(C)C[C@@H]1NC(=O)[C@H](CCCCN)NC(=O)CNC(=O)[C@H](CC(C)C)NC(=O)[C@H](C(C)C)NC(=O)CN(C)C(=O)[C@H](CC(C)C)NC(=O)[C@@H](N)CSSC[C@@H](C(=O)O)NC1=O", "note": "[C L nG V L G K L C] (H-CL[Sar]VLGKLC-OH; disulfide 1-9)", "with ACA 6501 150 ug/mL": 70}, {"smiles": "CC(C)C[C@@H]1NC(=O)[C@H](CCCCN)NC(=O)CNC(=O)[C@H](CC(C)C)NC(=O)[C@H](C(C)C)NC(=O)[C@H](c2ccccc2)NC(=O)[C@H](CC(C)C)NC(=O)[C@@H](N)CSSC[C@@H](C(=O)O)NC1=O", "note": "[C L pG V L G K L C] (H-CL[Phg]VLGKLC-OH; disulfide 1-9)", "with ACA 6501 150 ug/mL": 70}, {"smiles": "CC(C)C[C@@H]1NC(=O)[C@H](CCCCN)NC(=O)CNC(=O)[C@H](CC(C)C)NC(=O)[C@H](C(C)C)NC(=O)CNC(=O)[C@@H]2CCCN2C(=O)[C@@H](N)CSSC[C@@H](C(=O)O)NC1=O", "note": "[C P G V L G K L C] (H-CPGVLGKLC-OH; disulfide 1-9)", "with ACA 6501 150 ug/mL": 160}, {"smiles": "CC(C)C[C@@H]1NC(=O)[C@H](CCCCN)NC(=O)CNC(=O)[C@H](CC(C)C)NC(=O)[C@H](C(C)C)NC(=O)CNC(=O)[C@H](C(C)C)NC(=O)[C@@H](N)CSSC[C@@H](C(=O)O)NC1=O", "note": "[C V G V L G K L C] (H-CVGVLGKLC-OH; disulfide 1-9)", "with ACA 6501 150 ug/mL": 130}, {"smiles": "CC(C)C[C@@H]1NC(=O)[C@H](CCCCN)NC(=O)CNC(=O)[C@H](CC(C)C)NC(=O)[C@H](C(C)C)NC(=O)CNC(=O)C(C)(C)NC(=O)[C@@H](N)CSSC[C@@H](C(=O)O)NC1=O", "note": "[C aiB G V L G K L C] (H-C[Aib]GVLGKLC-OH; disulfide 1-9)", "with ACA 6501 150 ug/mL": 370}, {"smiles": "CC(C)C[C@@H]1NC(=O)[C@H](CCCCN)NC(=O)CNC(=O)[C@H](CC(C)C)NC(=O)[C@H](C(C)C)NC(=O)CNC(=O)[C@H](c2ccccc2)NC(=O)[C@@H](N)CSSC[C@@H](C(=O)O)NC1=O", "note": "[C pG G V L G K L C] (H-C[Phg]GVLGKLC-OH; disulfide 1-9)", "with ACA 6501 150 ug/mL": 130}, {"smiles": "CC(C)C[C@@H]1NC(=O)[C@H](CCCCN)NC(=O)CNC(=O)[C@H](CC(C)C)NC(=O)[C@H](C(C)C)NC(=O)CNC(=O)[C@@H](CC(C)C)NC(=O)[C@@H](N)CSSC[C@@H](C(=O)O)NC1=O", "note": "[CdL G V L G K L C] (H-C[dL]GVLGKLC-OH; disulfide 1-9)", "with ACA 6501 150 ug/mL": 180}]}]}
